Assay: LUNAR study safety: adverse events per CTCAE version 4.03, safety population
Format: in vivo, human
Details: for Anxiety / Confusional state / Mental status changes: psychiatric disorders; for Acute kidney injury / Urinary retention: renal and urinary disorders; for Acute respiratory failure / Atelectasis / Bronchial obstruction / Bronchopleural fistula / Chronic obstructive pulmonary disease / Cough / Dyspnoea / Esophago-bronchial fistula / Hemoptysis / Hypoxia / Interstitial lung disease / Pleural effusion / Pneumonia aspiration / Pneumonitis / Pulmonary embolism / Pulmonary hemorrhage / Respiratory failure: thoracic, and mediastinal disorders, respiratory; for Alopecia / Dermatitis exfoliative / Pruritus / Rash / Rash erythematous / Rash maculopapular / Skin erosion / Skin reaction / Skin toxicity: skin and subcutaneous tissue disorders; for Deep vein thrombosis / Embolism / Hypertension / Jugular vein thrombosis / Peripheral arterial occlusive disease / Vena cava embolism: vascular disorders
[1] = Grade 4, nervous system disorders
[2] = Grade 5, nervous system disorders

Experimental: Safety and treatment data were compiled from all patients who received any study therapy and were analyzed according to the actual treatment received. Analyses were performed using SAS software, version 9.4 (SAS Institute).

CC(=O)O[C@@]12CO[C@@H]1C[C@H](O)[C@@]1(C)C(=O)[C@H](O)C3=C(C)[C@@H](OC(=O)[C@H](O)[C@@H](NC(=O)OC(C)(C)C)c4ccccc4)C[C@@](O)([C@@H](OC(=O)c4ccccc4)[C@H]21)C3(C)C [Docetaxel, docetaxel]
43 (63.2) no. (%): Any adverse event (Grade ≥3)
11 (16.2) no. (%): Neutropenia (Grade ≥3)
8 (11.8) no. (%): Anemia (Grade ≥3)
2 (2.9) no. (%): White blood cell count decreased (Grade 4) | Bronchial obstruction (Grade 4) | Acute respiratory failure (Grade 5)
28 (41.2) no. (%): Serious adverse event (in vivo)
4 (5.9) no. (%): Neutrophil count decreased (Grade 4) | Any adverse event (Grade 5) | Adverse event leading to death (human, in vivo, 75 mg/m2)
0 no. (%): Metastases to bone (Grade 4) | Metastases to central nervous system (Grade 4) | Metastases to meninges (Grade 4) | Metastases to skin (Grade 4) | Mouth ulceration (Grade 4) | Mucosal inflammation (Grade 4) | Multiple organ dysfunction syndrome (Grade 4) | Muscular weakness (Grade 4) | Myalgia (Grade 4) | Myocardial infarction (Grade 4) | Nausea (Grade 4) | Neck pain (Grade 4) | Neuropathy peripheral (Grade 4) | Non-cardiac chest pain (Grade 4) | Oedema peripheral (Grade 4) | Oral candidiasis (Grade 4) | Pancreatic failure (Grade 4) | Pancreatitis (Grade 4) | Pericardial effusion (Grade 4) | Peripheral sensory (Grade 4) | Platelet count decreased (Grade 4) | Pneumonia (Grade 4) | Pneumonia pseudomonal (Grade 4) | Pneumonia staphylococcal (Grade 4) | Pyelonephritis (Grade 4) | Pyopneumothorax (Grade 4) | Pyrexia (Grade 4) | Refeeding syndrome (Grade 4) | Respiratory tract infection (Grade 4) | Right ventricular failure (Grade 4) | Septic shock (Grade 4) | Skin infection (Grade 4) | Stomatitis (Grade 4) | Subileus (Grade 4) | Thyroiditis subacute (Grade 4) | Tumor pain (Grade 4) | Upper respiratory tract infection (Grade 4) | Urinary tract infection (Grade 4) | Urosepsis (Grade 4) | Vomiting (Grade 4) | Weight decreased (Grade 4) | Cauda equina syndrome [1] | Dysarthria [1] | Embolic stroke [1] | Hemiparesis [1] | Motor dysfunction [1] | Nervous system disorder [1] | Neurologic neglect syndrome [1] | Neurotoxicity [1] | Peripheral sensorimotor neuropathy [1] | Quadriparesis [1] | Seizure [1] | Syncope [1] | Vocal cord paralysis [1] | Anxiety (Grade 4) | Confusional state (Grade 4) | Acute kidney injury (Grade 4) | Urinary retention (Grade 4) | Acute respiratory failure (Grade 4) | Atelectasis (Grade 4) | Bronchopleural fistula (Grade 4) | Chronic obstructive pulmonary disease (Grade 4) | Cough (Grade 4) | Esophago-bronchial fistula (Grade 4) | Hemoptysis (Grade 4) | Hypoxia (Grade 4) | Interstitial lung disease (Grade 4) | Pleural effusion (Grade 4) | Pneumonia aspiration (Grade 4) | Pneumonitis (Grade 4) | Pulmonary embolism (Grade 4) | Pulmonary hemorrhage (Grade 4) | Respiratory failure (Grade 4) | Alopecia (Grade 4) | Dermatitis exfoliative (Grade 4) | Pruritus (Grade 4) | Rash (Grade 4) | Rash erythematous (Grade 4) | Rash maculopapular (Grade 4) | Skin erosion (Grade 4) | Skin reaction (Grade 4) | Skin toxicity (Grade 4) | Deep vein thrombosis (Grade 4) | Embolism (Grade 4) | Hypertension (Grade 4) | Peripheral arterial occlusive disease (Grade 4) | Vena cava embolism (Grade 4) | Acute myocardial infarction (Grade 5) | Alanine aminotransferase increased (Grade 5) | Anemia (Grade 5) | Anemia macrocytic (Grade 5) | Arthralgia (Grade 5) | Ascites (Grade 5) | Aspergillus infection (Grade 5) | Asthenia (Grade 5) | Atrial tachycardia (Grade 5) | Autoimmune colitis (Grade 5) | Back pain (Grade 5) | Blood bilirubin increased (Grade 5) | Bone pain (Grade 5) | Bronchiolitis (Grade 5) | Bronchitis (Grade 5) | C-reactive protein increased (Grade 5) | COVID-19 pneumonia (Grade 5) | Cancer pain (Grade 5) | Cardiac failure congestive (Grade 5) | Cardiac tamponade (Grade 5) | Cardiac ventricular thrombosis (Grade 5) | Cataract (Grade 5) | Chest pain (Grade 5) | Cholangitis (Grade 5) | Cholecystitis (Grade 5) | Cholelithiasis (Grade 5) | Clostridium bacteremia (Grade 5) | Coronary artery disease (Grade 5) | Decreased appetite (Grade 5) | Dehydration (Grade 5) | Diarrhea (Grade 5) | Diverticulitis (Grade 5) | Drug hypersensitivity (Grade 5) | Encephalitis (Grade 5) | Esophagitis (Grade 5) | Fatigue (Grade 5) | Febrile neutropenia (Grade 5) | Femoral neck fracture (Grade 5) | Forced expiratory volume decreased (Grade 5) | Gastroenteritis norovirus (Grade 5) | Gastroenteritis salmonella (Grade 5) | General physical health deterioration (Grade 5) | Hematochezia (Grade 5) | Hepatic enzyme increased (Grade 5) | Hip fracture (Grade 5) | Hypercalcemia (Grade 5) | Hyperglycemia (Grade 5) | Hyperkalaemia (Grade 5) | Hypertriglyceridaemia (Grade 5) | Hypoalbuminemia (Grade 5) | Hypocalcaemia (Grade 5) | Hypokalemia (Grade 5) | Hyponatremia (Grade 5) | Ileus (Grade 5) | Infection (Grade 5) | Intestinal dilatation (Grade 5) | Intestinal hemorrhage (Grade 5) | Intestinal perforation (Grade 5) | Large intestine perforation (Grade 5) | Leukopenia (Grade 5) | Liver disorder (Grade 5) | Localized oedema (Grade 5) | Lung abscess (Grade 5) | Lymphocyte count decreased (Grade 5) | Lymphopenia (Grade 5) | Malignant ascites (Grade 5) | Malignant pleural effusion (Grade 5) | Malnutrition (Grade 5) | Metastases to bone (Grade 5) | Metastases to central nervous system (Grade 5) | Metastases to meninges (Grade 5) | Mouth ulceration (Grade 5) | Mucosal inflammation (Grade 5) | Multiple organ dysfunction syndrome (Grade 5) | Muscular weakness (Grade 5) | Myalgia (Grade 5) | Myocardial infarction (Grade 5) | Nausea (Grade 5) | Neck pain (Grade 5) | Neutropenia (Grade 5) | Neutrophil count decreased (Grade 5) | Non-cardiac chest pain (Grade 5) | Oedema peripheral (Grade 5) | Oral candidiasis (Grade 5) | Pancreatic failure (Grade 5) | Pancreatitis (Grade 5) | Pericardial effusion (Grade 5) | Peripheral sensory (Grade 5) | Platelet count decreased (Grade 5) | Pneumonia (Grade 5) | Pneumonia pseudomonal (Grade 5) | Pneumonia staphylococcal (Grade 5) | Pyelonephritis (Grade 5) | Pyopneumothorax (Grade 5) | Pyrexia (Grade 5) | Refeeding syndrome (Grade 5) | Respiratory tract infection (Grade 5) | Right ventricular failure (Grade 5) | Sepsis (Grade 5) | Septic shock (Grade 5) | Skin infection (Grade 5) | Stomatitis (Grade 5) | Subileus (Grade 5) | Thrombocytopenia (Grade 5) | Thyroiditis subacute (Grade 5) | Tumor pain (Grade 5) | Upper respiratory tract infection (Grade 5) | Urinary tract infection (Grade 5) | Urosepsis (Grade 5) | Vomiting (Grade 5) | Weight decreased (Grade 5) | White blood cell count decreased (Grade 5) | Brain oedema [2] | Cauda equina syndrome [2] | Dysarthria [2] | Hemiparesis [2] | Motor dysfunction [2] | Nervous system disorder [2] | Neurologic neglect syndrome [2] | Peripheral sensorimotor neuropathy [2] | Quadriparesis [2] | Seizure [2] | Syncope [2] | Vocal cord paralysis [2] | Anxiety (Grade 5) | Confusional state (Grade 5) | Mental status changes (Grade 5) | Acute kidney injury (Grade 5) | Urinary retention (Grade 5) | Atelectasis (Grade 5) | Bronchial obstruction (Grade 5) | Bronchopleural fistula (Grade 5) | Chronic obstructive pulmonary disease (Grade 5) | Cough (Grade 5) | Dyspnoea (Grade 5) | Esophago-bronchial fistula (Grade 5) | Hemoptysis (Grade 5) | Hypoxia (Grade 5) | Interstitial lung disease (Grade 5) | Pleural effusion (Grade 5) | Pneumonia aspiration (Grade 5) | Pneumonitis (Grade 5) | Pulmonary embolism (Grade 5) | Pulmonary hemorrhage (Grade 5) | Alopecia (Grade 5) | Dermatitis exfoliative (Grade 5) | Pruritus (Grade 5) | Rash (Grade 5) | Rash erythematous (Grade 5) | Rash maculopapular (Grade 5) | Skin erosion (Grade 5) | Skin reaction (Grade 5) | Skin toxicity (Grade 5) | Deep vein thrombosis (Grade 5) | Embolism (Grade 5) | Hypertension (Grade 5) | Jugular vein thrombosis (Grade 5) | Peripheral arterial occlusive disease (Grade 5) | Vena cava embolism (Grade 5) | COVID-19 pneumonia (human, in vivo) | Herpes zoster (human, in vivo)
10 (14.7) no. (%): Neutropenia (Grade 4)
1 (1.5) no. (%): Sepsis (Grade 4) | Thrombocytopenia (Grade 4) | Brain oedema [1] | Mental status changes (Grade 4) | Dyspnoea (Grade 4) | Jugular vein thrombosis (Grade 4) | Euthanasia (Grade 5) | Respiratory failure (Grade 5) | Adverse event leading to discontinuation (in vivo)
four: patients who discontinued therapy due to intolerable toxicity (in vivo)

Reference: US20240399142A1, “Methods Of Using Alternating Electric Fields And Checkpoint Inhibitors” (NOVOCURE GMBH, priority 2023, published 2024)
